Test results: the supplement of paper PMC10307832

Legend:
Assay in all cases: relative viability (nuclei count vs DMSO), 5 days (fraction); higher = more cells survive
[1] = compound: C1=CC=C2C(=C1)C=CC(=C2SSC3=C(C=CC4=CC=CC=C43)O)O [IPA-3] + CS(=O)(=O)CCNCc1ccc(-c2ccc3ncnc(Nc4ccc(OCc5cccc(F)c5)c(Cl)c4)c3c2)o1 [Lapatinib] (partner 2 µM)
Outline: (§1)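 The day after seeding in 1536-well plates, lung cancer cell lines were treated by pin tool with a single drug, or with a fixed anchor-drug dose together with five library-drug doses (not always all listed) in √10 steps. After 5 days, a combined fix-and-stain solution (final 0.05% Triton X-100, 1% formaldehyde, 1 ug/ml Hoechst) was added. Nuclei counted on 4× images gave relative viability as treated counts over vehicle counts, reported as the median of duplicate plates.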

[2] = compound: Cc1ccc(-n2nc(C(C)(C)C)cc2NC(=O)Nc2ccc(OCCN3CCOCC3)c3ccccc23)cc1 [Doramapimod] + CC(=O)Nc1cccc(-n2c(=O)n(C3CC3)c(=O)c3c(Nc4ccc(I)cc4F)n(C)c(=O)c(C)c32)c1 [Trametinib] (partner 0.02 µM)
Outline: as §1

[3] = compound: Cc1ccc(-n2nc(C(C)(C)C)cc2NC(=O)Nc2ccc(OCCN3CCOCC3)c3ccccc23)cc1 [Doramapimod] + CS(=O)(=O)CCNCc1ccc(-c2ccc3ncnc(Nc4ccc(OCc5cccc(F)c5)c(Cl)c4)c3c2)o1 [Lapatinib] (partner 2 µM)
Outline: as §1

[4] = compound: Cc1ccc(-n2nc(C(C)(C)C)cc2NC(=O)Nc2ccc(OCCN3CCOCC3)c3ccccc23)cc1 [Doramapimod] + Cc1nc(Nc2ncc(C(=O)Nc3c(C)cccc3Cl)s2)cc(N2CCN(CCO)CC2)n1 [Dasatinib] (partner 0.075 µM)
Outline: as §1

SK-LU-1 was tested, and the relative viability ([1]; first compound 0.2 µM) was 1.18, the relative viability ([1]; first compound 0.6325 µM) was 0.744 and the relative viability ([1]; first compound 2 µM) was 1.01. For the same cell line, the relative viability ([1]; first compound 6.325 µM) was 0.756, the relative viability ([1]; first compound 20 µM) was 0.692 and the relative viability ([2]; first compound 0.02 µM) was 0.469. The relative viability ([2]; first compound 0.06325 µM) was 0.593, the relative viability ([2]; first compound 0.2 µM) was 0.588 and the relative viability ([2]; first compound 0.6325 µM) was 0.624. It also gave a relative viability ([2]; first compound 2 µM) of 0.555, a relative viability ([3]; first compound 0.02 µM) of 0.975 and a relative viability ([3]; first compound 0.06325 µM) of 0.947. The relative viability ([3]; first compound 0.2 µM) was 0.971, the relative viability ([3]; first compound 0.6325 µM) was 0.806 and the relative viability ([3]; first compound 2 µM) was 0.762. For the same cell line, the relative viability ([4]; first compound 0.02 µM) was 0.16, the relative viability ([4]; first compound 0.06325 µM) was 0.182 and the relative viability ([4]; first compound 0.2 µM) was 0.195. For the same cell line, the relative viability ([4]; first compound 0.6325 µM) was 0.204 and the relative viability ([4]; first compound 2 µM) was 0.218.
For NCI-H2085, the relative viability ([1]; first compound 0.2 µM) was 0.931, the relative viability ([1]; first compound 0.6325 µM) was 0.723 and the relative viability ([1]; first compound 2 µM) was 0.741. For the same cell line, the relative viability ([1]; first compound 6.325 µM) was 0.712, the relative viability ([1]; first compound 20 µM) was 0.825 and the relative viability ([2]; first compound 0.02 µM) was 0.496. The relative viability ([2]; first compound 0.06325 µM) was 0.494, the relative viability ([2]; first compound 0.2 µM) was 0.502 and the relative viability ([2]; first compound 0.6325 µM) was 0.471. For the same cell line, the relative viability ([2]; first compound 2 µM) was 0.494, the relative viability ([3]; first compound 0.02 µM) was 0.79 and the relative viability ([3]; first compound 0.06325 µM) was 0.764. For the same cell line, the relative viability ([3]; first compound 0.2 µM) was 0.749, the relative viability ([3]; first compound 0.6325 µM) was 0.836 and the relative viability ([3]; first compound 2 µM) was 0.707. For the same cell line, the relative viability ([4]; first compound 0.02 µM) was 0.253, the relative viability ([4]; first compound 0.06325 µM) was 0.252 and the relative viability ([4]; first compound 0.2 µM) was 0.221. For the same cell line, the relative viability ([4]; first compound 0.6325 µM) was 0.28 and the relative viability ([4]; first compound 2 µM) was 0.201.
In the case of NCI-H460, the relative viability ([1]; first compound 0.6325 µM) is reported as 0.807, the relative viability ([1]; first compound 2 µM) is reported as 1.1 and the relative viability ([1]; first compound 6.325 µM) is reported as 0.889. It also gave a relative viability ([1]; first compound 20 µM) of 1.19, a relative viability ([2]; first compound 0.02 µM) of 0.163 and a relative viability ([2]; first compound 0.06325 µM) of 0.143. The relative viability ([2]; first compound 0.2 µM) was 0.135, the relative viability ([2]; first compound 0.6325 µM) was 0.159 and the relative viability ([2]; first compound 2 µM) was 0.105. The relative viability ([3]; first compound 0.02 µM) was 0.889, the relative viability ([3]; first compound 0.06325 µM) was 0.962 and the relative viability ([3]; first compound 0.2 µM) was 0.858. The relative viability ([3]; first compound 0.6325 µM) was 0.946, the relative viability ([3]; first compound 2 µM) was 0.934 and the relative viability ([4]; first compound 0.02 µM) was 0.445. The relative viability ([4]; first compound 0.06325 µM) was 0.499, the relative viability ([4]; first compound 0.2 µM) was 0.488 and the relative viability ([4]; first compound 0.6325 µM) was 0.535. It also gave a relative viability ([4]; first compound 2 µM) of 0.437.
For Calu-6, the relative viability ([1]; first compound 0.2 µM) was 1.15, the relative viability ([1]; first compound 0.6325 µM) was 0.958 and the relative viability ([1]; first compound 2 µM) was 1.05. The relative viability ([1]; first compound 6.325 µM) was 1.01, the relative viability ([1]; first compound 20 µM) was 1.05 and the relative viability ([3]; first compound 0.02 µM) was 1.06. The relative viability ([3]; first compound 0.06325 µM) was 1.13, the relative viability ([3]; first compound 0.2 µM) was 1.17 and the relative viability ([3]; first compound 0.6325 µM) was 1.19. The relative viability ([3]; first compound 2 µM) was 0.985.
With RERF-LC-KJ the relative viability ([1]; first compound 0.2 µM) was 1, the relative viability ([1]; first compound 0.6325 µM) was 0.828 and the relative viability ([1]; first compound 2 µM) was 0.764. It also gave a relative viability ([1]; first compound 6.325 µM) of 0.801, a relative viability ([1]; first compound 20 µM) of 0.897 and a relative viability ([2]; first compound 0.02 µM) of 0.969. For the same cell line, the relative viability ([2]; first compound 0.06325 µM) was 0.881, the relative viability ([2]; first compound 0.2 µM) was 0.901 and the relative viability ([2]; first compound 0.6325 µM) was 0.984. It also gave a relative viability ([2]; first compound 2 µM) of 0.885, a relative viability ([3]; first compound 0.02 µM) of 0.983 and a relative viability ([3]; first compound 0.06325 µM) of 0.946. It also gave a relative viability ([3]; first compound 0.2 µM) of 0.879, a relative viability ([3]; first compound 0.6325 µM) of 0.908 and a relative viability ([3]; first compound 2 µM) of 0.814. The relative viability ([4]; first compound 0.02 µM) was 0.88, the relative viability ([4]; first compound 0.06325 µM) was 0.709 and the relative viability ([4]; first compound 0.2 µM) was 0.729. It also gave a relative viability ([4]; first compound 0.6325 µM) of 0.769 and a relative viability ([4]; first compound 2 µM) of 0.768.
In the case of LCLC-103H, the relative viability ([2]; first compound 0.02 µM) is reported as 0.656, the relative viability ([2]; first compound 0.06325 µM) is reported as 0.675 and the relative viability ([2]; first compound 0.2 µM) is reported as 0.683. It also gave a relative viability ([2]; first compound 0.6325 µM) of 0.68, a relative viability ([2]; first compound 2 µM) of 0.679 and a relative viability ([4]; first compound 0.02 µM) of 0.451. The relative viability ([4]; first compound 0.06325 µM) was 0.488, the relative viability ([4]; first compound 0.2 µM) was 0.374 and the relative viability ([4]; first compound 0.6325 µM) was 0.448. It also gave a relative viability ([4]; first compound 2 µM) of 0.44.
HCC-15 showed a relative viability ([1]; first compound 0.2 µM) of 1.08, a relative viability ([1]; first compound 0.6325 µM) of 0.77 and a relative viability ([1]; first compound 2 µM) of 0.806. The relative viability ([1]; first compound 6.325 µM) was 0.868, the relative viability ([1]; first compound 20 µM) was 0.958 and the relative viability ([2]; first compound 0.02 µM) was 0.341. It also gave a relative viability ([2]; first compound 0.06325 µM) of 0.306, a relative viability ([2]; first compound 0.2 µM) of 0.331 and a relative viability ([2]; first compound 0.6325 µM) of 0.293. It also gave a relative viability ([2]; first compound 2 µM) of 0.292, a relative viability ([3]; first compound 0.02 µM) of 0.864 and a relative viability ([3]; first compound 0.06325 µM) of 0.962. The relative viability ([3]; first compound 0.2 µM) was 0.84, the relative viability ([3]; first compound 0.6325 µM) was 0.521 and the relative viability ([3]; first compound 2 µM) was 0.752. For the same cell line, the relative viability ([4]; first compound 0.02 µM) was 0.56, the relative viability ([4]; first compound 0.06325 µM) was 0.598 and the relative viability ([4]; first compound 0.2 µM) was 0.634. The relative viability ([4]; first compound 2 µM) was 0.595.
H3255 showed a relative viability ([1]; first compound 0.2 µM) of 0.213, a relative viability ([1]; first compound 0.6325 µM) of 0.277 and a relative viability ([1]; first compound 2 µM) of 0.184. It also gave a relative viability ([1]; first compound 6.325 µM) of 0.2, a relative viability ([1]; first compound 20 µM) of 0.23 and a relative viability ([2]; first compound 0.02 µM) of 0.581. For the same cell line, the relative viability ([2]; first compound 0.06325 µM) was 0.522, the relative viability ([2]; first compound 0.2 µM) was 0.626 and the relative viability ([2]; first compound 2 µM) was 0.522. For the same cell line, the relative viability ([3]; first compound 0.02 µM) was 0.234, the relative viability ([3]; first compound 0.06325 µM) was 0.233 and the relative viability ([3]; first compound 0.2 µM) was 0.244. For the same cell line, the relative viability ([3]; first compound 0.6325 µM) was 0.241, the relative viability ([3]; first compound 2 µM) was 0.267 and the relative viability ([4]; first compound 0.02 µM) was 0.296. The relative viability ([4]; first compound 0.06325 µM) was 0.56, the relative viability ([4]; first compound 0.2 µM) was 0.414 and the relative viability ([4]; first compound 0.6325 µM) was 0.314. It also gave a relative viability ([4]; first compound 2 µM) of 0.351.
NCI-H1792 gave a relative viability ([1]; first compound 0.2 µM) of 1.07, a relative viability ([1]; first compound 0.6325 µM) of 0.888 and a relative viability ([1]; first compound 2 µM) of 0.94. The relative viability ([1]; first compound 6.325 µM) was 0.894, the relative viability ([1]; first compound 20 µM) was 1.01 and the relative viability ([2]; first compound 0.02 µM) was 0.446. The relative viability ([2]; first compound 0.06325 µM) was 0.407, the relative viability ([2]; first compound 0.2 µM) was 0.379 and the relative viability ([2]; first compound 0.6325 µM) was 0.374. The relative viability ([2]; first compound 2 µM) was 0.27, the relative viability ([3]; first compound 0.02 µM) was 0.898 and the relative viability ([3]; first compound 0.06325 µM) was 0.986. The relative viability ([3]; first compound 0.2 µM) was 0.909, the relative viability ([3]; first compound 0.6325 µM) was 0.859 and the relative viability ([3]; first compound 2 µM) was 0.858. For the same cell line, the relative viability ([4]; first compound 0.02 µM) was 0.727, the relative viability ([4]; first compound 0.06325 µM) was 0.645 and the relative viability ([4]; first compound 0.2 µM) was 0.713. It also gave a relative viability ([4]; first compound 0.6325 µM) of 0.645 and a relative viability ([4]; first compound 2 µM) of 0.654.
